Laboratory results: patent US10202658B2, “Methods for determining hypersusceptibility of HIV-1 to non-nucleoside reverse transcriptase inhibitors” (Monogram Biosciences, Inc., priority 2005, dated 2019)

tested on: HIV-1, RT mutations: T215Y and 2 TAMs and V118I; test: PhenoSense resistance test vector assay, clinical isolates with T215Y and 2 TAMs and V118I; format: cell-based; settings: share of samples designated hypersusceptible
Procedure: In preferred embodiments, the phenotypic analysis of NNRTI hypersusceptibility is performed using PHENOSENSE™ (ViroLogic Inc., South San Francisco, Calif.). See Petropoulos et al., 2000, Antimicrob. Agents Chemother. 44:920-928; U.S. Pat. Nos. 5,837,464 and 6,242,187. PHENOSENSE™ is a phenotypic assay that achieves the benefits of phenotypic testing and overcomes the drawbacks of previous assays. Because the assay has been automated, PHENOSENSE™ provides high throughput methods under controlled conditions for determining NNRTI resistance, susceptibility, or hypersusceptibility of a large number of individual viral isolates.
The assay can be performed by first co-transfecting host cells with RTV DNA and a plasmid that expresses the envelope proteins of another retrovirus, for example, amphotropic murine leukemia virus (MLV). Following transfection, viral particles can be harvested from the cell culture and used to infect fresh target cells in the presence of varying amounts of anti-viral drug(s). The completion of a single round of viral replication in the fresh target cells can be detected by the means for detecting replication contained in the vector. In a preferred embodiment, the completion of a single round of viral replication results in the production of luciferase. By monitoring the amount of, e.g., luciferase activity in the presence of the varying amounts of antiviral drug(s), a resistance curve can be constructed by plotting luciferase activity versus drug concentration. The susceptibility of an HIV, or population of HIV, can be determined by measuring the concentration of antiviral drug at which the luciferase activity detected is half-maximal. This number, the IC50, provides a standard and convenient measure of drug resistance.
Patient-derived segment(s) corresponding to the HIV protease and reverse transcriptase coding regions were amplified by the reverse transcription-polymerase chain reaction method (RT-PCR) using viral RNA isolated from viral particles present in the plasma or serum of HIV-infected individuals as follows. […]

Compared with `CC(C)Nc1cccnc1N1CCN(C(=O)c2cc3cc(NS(C)(=O)=O)ccc3[nH]2)CC1` [DLV, delavirdine], `Cc1ccnc2c1NC(=O)c1cccnc1N2C1CC1` [NVP, nevirapine] is lower in “% IC50 0.4 fold < WT” value: 63.8% for the first, 27.1% for the second.

With `O=C1Nc2ccc(Cl)cc2[C@@](C#CC2CC2)(C(F)(F)F)O1` [EFV, efavirenz] the “% IC50 0.4 fold < WT” value was 39.6%.
